Experimental data taken from patent US8791131B2, “Imidazo[1,5]naphthyridine compounds, their pharmaceutical use and compositions” (Pfizer Inc., priority 2008, dated 2014).
Like-named read-outs stand apart in the source and are kept apart here.

How the values were obtained:
[1] = test system: PI3-K (phosphorylation of AKT at serine 473) in BT20 cells; test: PI3-Kα cellular assay (phospho-AKT Ser473 ELISA in BT20 cells); conditions: Homo sapiens, BT-20, 1 h;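 also: lysates read by ELISA with TMB colour at 450 nm, cells given 0.5% DMSO vehicle serve as positive control and cell-free wells as negative control, duplicate wells per concentration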
PI3-Kα = PI3-Kα (Mus musculus (Mouse), UniProt P42337); test: PI3-Kα biochemical assay (in vitro kinase assay, fluorescence polarization); conditions: Ki calculated from IC50, [ATP]=30 uM, Km=25 uM;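 also: Insect-cell-expressed mouse p110/p85 complex converting PI(4,5)P2, product PI(3,4,5)P3 detected by displacing TAMRA-tagged PI(3,4,5)P3 from Grip1 PH domain, lower polarization means more product, room temperature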
mTOR = mTOR (Homo sapiens (Human), UniProt P42345)
[2] = read-out: S473 pAKT 0.5% FBS IC50 (μM)
[3] = read-out: S473 pAKT 10% FBS IC50 (μM)

Sequence of PI3-Kα (P42337 whole entry, the tested form may be a part): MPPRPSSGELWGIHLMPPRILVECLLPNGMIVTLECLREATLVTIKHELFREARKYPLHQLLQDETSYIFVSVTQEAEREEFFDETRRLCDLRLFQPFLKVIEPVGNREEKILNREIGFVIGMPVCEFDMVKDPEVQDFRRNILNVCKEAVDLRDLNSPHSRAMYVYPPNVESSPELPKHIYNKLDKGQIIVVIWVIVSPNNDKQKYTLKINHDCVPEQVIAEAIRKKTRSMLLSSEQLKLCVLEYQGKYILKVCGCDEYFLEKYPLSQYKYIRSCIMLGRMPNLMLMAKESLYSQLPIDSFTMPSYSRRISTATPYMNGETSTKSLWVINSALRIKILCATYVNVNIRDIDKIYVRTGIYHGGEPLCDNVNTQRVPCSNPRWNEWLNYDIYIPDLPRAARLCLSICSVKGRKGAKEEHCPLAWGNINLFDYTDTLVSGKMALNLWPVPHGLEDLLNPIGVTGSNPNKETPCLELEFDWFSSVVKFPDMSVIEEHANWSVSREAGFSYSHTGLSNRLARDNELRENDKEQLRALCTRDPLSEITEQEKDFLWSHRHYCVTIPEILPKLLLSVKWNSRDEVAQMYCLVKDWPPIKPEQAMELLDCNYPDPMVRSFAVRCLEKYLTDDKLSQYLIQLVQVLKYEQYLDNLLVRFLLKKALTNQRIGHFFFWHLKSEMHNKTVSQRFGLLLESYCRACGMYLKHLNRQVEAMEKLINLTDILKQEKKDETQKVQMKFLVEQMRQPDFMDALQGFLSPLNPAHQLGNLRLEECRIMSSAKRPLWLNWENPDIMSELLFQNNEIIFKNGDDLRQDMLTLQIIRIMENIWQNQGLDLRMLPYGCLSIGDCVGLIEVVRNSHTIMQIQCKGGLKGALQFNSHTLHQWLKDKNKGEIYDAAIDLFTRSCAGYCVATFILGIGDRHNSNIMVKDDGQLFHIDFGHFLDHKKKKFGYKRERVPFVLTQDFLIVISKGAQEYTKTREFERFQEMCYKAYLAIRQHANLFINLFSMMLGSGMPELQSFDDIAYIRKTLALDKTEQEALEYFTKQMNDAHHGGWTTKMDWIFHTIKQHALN
Sequence of PI3-Kα (P26450 whole entry partner, the tested form may be a part): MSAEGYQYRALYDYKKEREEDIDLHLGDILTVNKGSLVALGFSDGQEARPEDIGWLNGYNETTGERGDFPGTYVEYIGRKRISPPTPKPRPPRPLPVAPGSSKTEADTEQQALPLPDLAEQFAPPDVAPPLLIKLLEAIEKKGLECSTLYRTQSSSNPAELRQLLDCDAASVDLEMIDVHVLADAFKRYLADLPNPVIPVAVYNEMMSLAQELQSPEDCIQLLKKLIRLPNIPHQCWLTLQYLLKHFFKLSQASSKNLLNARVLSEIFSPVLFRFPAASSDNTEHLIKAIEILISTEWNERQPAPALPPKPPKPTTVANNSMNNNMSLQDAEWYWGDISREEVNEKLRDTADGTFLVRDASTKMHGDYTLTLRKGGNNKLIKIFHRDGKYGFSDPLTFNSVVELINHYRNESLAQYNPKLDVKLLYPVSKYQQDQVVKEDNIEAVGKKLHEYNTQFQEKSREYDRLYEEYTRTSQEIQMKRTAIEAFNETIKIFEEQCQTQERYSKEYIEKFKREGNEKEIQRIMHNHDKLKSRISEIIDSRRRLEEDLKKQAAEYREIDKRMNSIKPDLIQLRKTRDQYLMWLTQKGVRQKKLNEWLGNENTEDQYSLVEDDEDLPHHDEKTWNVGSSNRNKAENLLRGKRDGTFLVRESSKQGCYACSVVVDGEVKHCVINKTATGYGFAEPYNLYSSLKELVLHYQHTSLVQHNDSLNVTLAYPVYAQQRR
Sequence of mTOR (P42345 2156-2469): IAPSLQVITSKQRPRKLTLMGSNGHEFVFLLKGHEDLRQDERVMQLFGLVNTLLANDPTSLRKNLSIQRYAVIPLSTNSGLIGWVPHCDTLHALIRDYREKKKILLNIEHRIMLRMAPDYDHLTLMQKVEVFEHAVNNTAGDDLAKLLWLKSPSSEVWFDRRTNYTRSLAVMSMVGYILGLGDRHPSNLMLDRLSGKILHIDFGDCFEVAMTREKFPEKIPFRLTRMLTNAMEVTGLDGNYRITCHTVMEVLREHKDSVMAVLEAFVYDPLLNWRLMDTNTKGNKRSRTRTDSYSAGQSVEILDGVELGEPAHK

| SMILES | IC50 [1, 2] | PI3Ka Ki (PI3-Kα) | Ki (mTOR) | IC50 [1, 3] |
| --- | --- | --- | --- | --- |
| COc1ccc(-c2ccc3ncc4[nH]c(=O)n(-c5ccc(C(C)(C)C#N)cc5)c4c3n2)cn1 [Compound 103, 2-{4-[8-(6-methoxypyridin-3-yl)-2-oxo-2,3-dihydro-1H-imidazo[4,5-c]-1,5-naphthyridin-1-yl]phenyl}-2-methylpropanenitrile] | 0.0115 µM | 1.86 nM | 2.09 nM |  |
| Cc1ccc(-c2ccc3ncc4c(c3n2)n(-c2ccc(C(C)(C)C#N)cc2)c(=O)n4C)cn1 [Compound 106, 2-methyl-2-{4-[3-methyl-8-(6-methylpyridin-3-yl)-2-oxo-2,3-dihydro-1H-imidazo[4,5-c]-1,5-naphthyridin-1-yl]phenyl}propanenitrile] | 0.0244 µM | 34.8 nM | 26.9 nM |  |
| CN(C)c1ccc(-c2ccc3ncc4[nH]c(=O)n(-c5ccc(C(C)(C)C#N)cc5)c4c3n2)cn1 [Compound 107, 2-(4-(8-(6-(dimethylamino)pyridin-3-yl)-2-oxo-2,3-dihydroimidazo[4,5-c][1,5]naphthyridin-1-yl)phenyl)-2-methylpropanenitrile] | 0.0676 µM | 3.85 nM | 4.26 nM |  |
| CN(C)c1ccc(-c2ccc3ncc4c(c3n2)n(-c2ccc(C(C)(C)C#N)cc2)c(=O)n4C)cn1 [Compound 108, 2-(4-(8-(6-(dimethylamino)pyridin-3-yl)-3-methyl-2-oxo-2,3-dihydroimidazo[4,5-c][1,5]naphthyridin-1-yl)phenyl)-2-methylpropanenitrile] | 0.0309 µM | 4.45 nM | 4.67 nM |  |
| COc1ncc(-c2ccc3ncc4[nH]c(=O)n(-c5ccc(C(C)(C)C#N)cc5)c4c3n2)cc1F [Compound 109, 2-(4-(8-(5-fluoro-6-methoxypyridin-3-yl)-2-oxo-2,3-dihydroimidazo[4,5-c][1,5]naphthyridin-1-yl)phenyl)-2-methylpropanenitrile] | 0.197 µM | 3.81 nM | 9.03 nM |  |
| COc1ncc(-c2ccc3ncc4c(c3n2)n(-c2ccc(C(C)(C)C#N)cc2)c(=O)n4C)cc1F [Compound 110, 2-(4-(8-(5-fluoro-6-methoxypyridin-3-yl)-3-methyl-2-oxo-2,3-dihydroimidazo[4,5-c][1,5]naphthyridin-1-yl)phenyl)-2-methylpropanenitrile] |  | 2.35 nM | 26.6 nM | 0.0907 µM |
| COc1ncc(-c2ccc3ncc4[nH]c(=O)n(-c5ccc(C(C)(C)C#N)cc5)c4c3n2)cn1 [Compound 111, 2-(4-(8-(2-methoxypyrimidin-5-yl)-2-oxo-2,3-dihydroimidazo[4,5-c][1,5]naphthyridin-1-yl)phenyl)-2-methylpropanenitrile] | 0.0439 µM | 11.4 nM | 1.54 nM |  |
| Cn1cc(-c2ccc3ncc4[nH]c(=O)n(-c5ccc(C(C)(C)C#N)cc5)c4c3n2)cn1 [Compound 113, 2-Methyl-2-{4-[8-(1-methyl-1H-pyrazol-4-yl)-2-oxo-2,3-dihydro-1,3,5,9-tetraaza-cyclopenta[a]naphthalen-1-yl]-phenyl}-propionitrile] | 0.0973 µM | 59.2 nM | 15.5 nM |  |
| Cn1cc(-c2ccc3ncc4c(c3n2)n(-c2ccc(C(C)(C)C#N)cc2)c(=O)n4C)cn1 [Compound 114, 2-Methyl-2-{4-[3-methyl-8-(1-methyl-1H-pyrazol-4-yl)-2-oxo-2,3-dihydro-1,3,5,9-tetraaza-cyclopenta[a]naphthalen-1-yl]-phenyl}-propionitrile] | 0.116 µM | 72.3 nM | 40.2 nM |  |
| O=c1[nH]c2cnc3ccc(-c4cnc5ccccc5c4)nc3c2n1C1CCNCC1 [Compound 117, 1-piperidin-4-yl-8-quinolin-3-yl-1,3-dihydro-2H-imidazo[4,5-c][1,5]naphthyridin-2-one] |  | 2.43 nM | 12.4 nM | 0.353 µM |
| CCN1CCC(n2c(=O)n(C)c3cnc4ccc(-c5cnc6ccccc6c5)nc4c32)CC1 [Compound 119, 1-(1-ethylpiperidin-4-yl)-3-methyl-8-quinolin-3-yl-1,3-dihydro-2H-imidazo[4,5-c][1,5]naphthyridin-2-one] | 0.0117 µM | 3.19 nM | 8.11 nM |  |
| CCC(=O)N1CCC(n2c(=O)n(C)c3cnc4ccc(-c5cnc6ccccc6c5)nc4c32)CC1 [Compound 121, 3-methyl-1-(1-propionylpiperidin-4-yl)-8-quinolin-3-yl-1,3-dihydro-2H-imidazo[4,5-c][1,5]naphthyridin-2-one] | 0.00786 µM | 0.539 nM | 7.9 nM |  |
| COC(=O)N1CCC(n2c(=O)n(C)c3cnc4ccc(-c5cnc6ccccc6c5)nc4c32)CC1 [Compound 122, methyl4-(3-methyl-2-oxo-8-quinolin-3-yl-2,3-dihydro-1H-imidazo[4,5-c][1,5]napthyridin-1-yl)piperidine-1-carboxylate] | 0.00807 µM | 0.806 nM | 12.4 nM |  |
| CNC(=O)N1CCC(n2c(=O)n(C)c3cnc4ccc(-c5cnc6ccccc6c5)nc4c32)CC1 [Compound 123, N-methyl-4-(3-methyl-2-oxo-8-quinolin-3-yl-2,3-dihydro-1H-imidazo[4,5-c][1,5]naphthyridin-1-yl)piperidine-1-carboxamide] | 0.00734 µM | 1.96 nM | 4.91 nM |  |
| CC(C)C(=O)N1CCC(n2c(=O)n(C)c3cnc4ccc(-c5cnc6ccccc6c5)nc4c32)CC1 [Compound 125, 1-(1-isobutyrylpiperidin-4-yl)-3-methyl-8-quinolin-3-yl-1,3-dihydro-2H-imidazo[4,5-c][1,5]naphthyridin-2-one] | 0.0294 µM | 1.06 nM | 4.87 nM |  |
| CN(C)CC(=O)N1CCC(n2c(=O)n(C)c3cnc4ccc(-c5cnc6ccccc6c5)nc4c32)CC1 [Compound 126, 1-[1-(N,N-dimethylglycyl)piperidin-4-yl]-3-methyl-8-quinolin-3-yl-1,3-dihydro-2H-imidazo[4,5-c][1,5]naphthyridin-2-one] | 0.018 µM | 2.55 nM | 3.42 nM |  |
| CCOC(=O)N1CCC(n2c(=O)n(C)c3cnc4ccc(-c5cnc6ccccc6c5)nc4c32)CC1 [Compound 127, ethyl 4-(3-methyl-2-oxo-8-quinolin-3-yl-2,3-dihydro-1H-imidazo[4,5-c][1,5]naphthyridin-1-yl)piperidine-1-carboxylate] | 0.0204 µM | 1.38 nM | 4.3 nM |  |
| CC(C)OC(=O)N1CCC(n2c(=O)n(C)c3cnc4ccc(-c5cnc6ccccc6c5)nc4c32)CC1 [Compound 128, isopropyl 4-(3-methyl-2-oxo-8-quinolin-3-yl-2,3-dihydro-1H-imidazo[4,5-c][1,5]naphthyridin-1-yl)piperidine-1-carboxylate] | 0.0196 µM | 2.89 nM | 9.72 nM |  |
| CN1CCC(n2c(=O)n(C)c3cnc4ccc(-c5cnc6ccccc6c5)nc4c32)CC1 [Compound 129, 3-methyl-1-(1-methylpiperidin-4-yl)-8-quinolin-3-yl-1,3-dihydro-2H-imidazo[4,5-c][1,5]naphthyridin-2-one] | 0.0117 µM | 5.92 nM | 4.9 nM |  |
| COc1ccc(-c2ccc3ncc4[nH]c(=O)n(Cc5ccccc5)c4c3n2)cn1 [Compound 130, 1-benzyl-8-(6-methoxypyridin-3-yl)-1,3-dihydro-2H-imidazo[4,5-c][1,5]naphthyridin-2-one] | 0.0245 µM | 2.39 nM | 8.44 nM |  |
| COc1ccc(-c2ccc3ncc4[nH]c(=O)n([C@H]5CC[C@H](OCCO)CC5)c4c3n2)cn1 [Compound 131, 1-[trans-4-(2-hydroxyethoxy)cyclohexyl]-8-(6-methoxypyridin-3-yl)-1,3-dihydro-2H-imidazo[4,5-c][1,5]naphthyridin-2-one] |  | 0.644 nM | 2.14 nM | 0.0384 µM |
| COc1ccc(-c2ccc3ncc4[nH]c(=O)n([C@H]5CC[C@H](O)CC5)c4c3n2)cn1 [Compound 132, 1-(trans-4-hydroxycyclohexyl)-8-(6-methoxypyridin-3-yl)-1,3-dihydro-2H-imidazo[4,5-c][1,5]naphthyridin-2-one] |  | 0.51 nM | 1.39 nM | 0.0468 µM |
| COc1ccc(-c2ccc3ncc4c(c3n2)n(C2CCN(C(C)C)CC2)c(=O)n4C)cn1 [Compound 137, 1-(1-isopropylpiperidin-4-yl)-8-(6-methoxypyridin-3-yl)-3-methyl-1,3-dihydro-2H-imidazo[4,5-c][1,5]naphthyridin-2-one] |  | 3.48 nM | 17.8 nM | 0.0551 µM |
| COc1ccc(-c2ccc3ncc4c(c3n2)n(C2CCN(C(=O)CN(C)C)CC2)c(=O)n4C)cn1 [Compound 138, 1-[1-(N,N-dimethylglycyl)piperidin-4-yl]-8-(6-methoxypyridin-3-yl)-3-methyl-1,3-dihydro-2H-imidazo[4,5-c][1,5]naphthyridin-2-one] |  | 2.23 nM | 10.6 nM | 0.0144 µM |
| CNC(=O)N1CCC(n2c(=O)n(C)c3cnc4ccc(-c5cnn(C)c5)nc4c32)CC1 [Compound 217, N-methyl-4-[3-methyl-8-(1-methyl-1H-pyrazol-4-yl)-2-oxo-2,3-dihydro-1H-imidazo[4,5-c][1,5]naphthyridin-1-yl]piperidine-1-carboxamide] |  |  | 18.7 nM | 0.0793 µM |
| COc1ccc(-c2ccc3ncc4c(c3n2)n(C2CCN(C(=O)CO)CC2)c(=O)n4C)cc1 [Compound 273, 1-(1-glycoloylpiperidin-4-yl)-8-(4-methoxyphenyl)-3-methyl-1,3-dihydro-2H-imidazo[4,5-c][1,5]naphthyridin-2-one] |  |  | 3.42 nM | 0.0174 µM |
